The values below are quoted from earlier work in patent publication US11648211B2, “Nanoencapsulated combination drug formulations” (priority 2019, dated 2023).

The data set concerns spontaneous breast cancer.

Like-named read-outs stand apart in the source and are kept apart here.

For the compound `Cn1ncnc1[C@H]1c2n[nH]c(=O)c3cc(F)cc(c23)N[C@@H]1c1ccc(F)cc1` [TLZ, Talazoparib], the animals with alopecia runs as follows: (i.v.) 25%; (oral) 25%.
